# According to ChEMBL document CHEMBL3885881, “DrugMatrix”:
# Organism: Rattus norvegicus
# Experiment: DrugMatrix - Regimen: Daily Repeat
# Type: toxicity, organism-based, Sprague-Dawley
# Parameters: regimen Daily Repeat, gender Male, age 6-8 weeks
# Details: in vivo, iv, vehicle 100 % SALINE; for ABSOLUTE BASOPHIL / ABSOLUTE EOSINOPHIL / ABSOLUTE LYMPHOCYTE / ABSOLUTE MONOCYTE / ABSOLUTE SEGMENTED NEUTROPHIL / BASOPHIL / EOSINOPHIL / ERYTHROCYTE COUNT / HEMATOCRIT / HEMOGLOBIN / LEUKOCYTE COUNT / LYMPHOCYTE / MEAN CORPUSCULAR HEMOGLOBIN / MEAN CORPUSCULAR HEMOGLOBIN CONCENTRATION / MEAN CORPUSCULAR VOLUME / MONOCYTE / NEUTROPHIL / NUCLEATED RED BLOOD CELLS / PLATELET COUNT: tissue Blood; for ALANINE AMINOTRANSFERASE / ALBUMIN / ALKALINE PHOSPHATASE / ASPARTATE AMINOTRANSFERASE / BLOOD UREA NITROGEN / CARBON DIOXIDE / CHLORIDE / CHOLESTEROL / CREATINE PHOSPHOKINASE / CREATININE / GLUCOSE / LACTATE DEHYDROGENASE / LIPASE / PHOSPHORUS / POTASSIUM / SODIUM / TOTAL BILIRUBIN / TOTAL PROTEIN / URIC ACID: tissue Plasma
# [1] = 0 mg/kg, 72 h, dose level Control, time 3 day
# [2] = 0 mg/kg, 120 h, dose level Control, time 5 day
# [3] = 0.08 mg/kg, 72 h, dose level Low, time 3 day
structure (smiles),measurement,setting,value
CC[C@]1(O)C[C@@H]2CN(CCc3c([nH]c4ccccc34)[C@@](C(=O)OC)(c3cc4c(cc3OC)N(C)[C@H]3[C@@](O)(C(=O)OC)[C@H](OC(C)=O)[C@]5(CC)C=CCN6CC[C@]43[C@@H]65)C2)C1 [VINBLASTINE],ABSOLUTE BASOPHIL,[1],0 CELLS/uL
same,ABSOLUTE EOSINOPHIL,[1],21.67 CELLS/uL
same,ABSOLUTE LYMPHOCYTE,[1],10193.67 CELLS/uL
same,ABSOLUTE MONOCYTE,[1],165.83 CELLS/uL
same,ABSOLUTE SEGMENTED NEUTROPHIL,[1],702.17 CELLS/uL
same,BASOPHIL,[1],0%
same,EOSINOPHIL,[1],0.17%
same,ERYTHROCYTE COUNT,[1],5.39 x10E6/uL
same,HEMATOCRIT,[1],34.62%
same,HEMOGLOBIN,[1],13.8 G/DL
same,LEUKOCYTE COUNT,[1],11.08 x10E3/uL
same,LYMPHOCYTE,[1],91.83%
same,MEAN CORPUSCULAR HEMOGLOBIN,[1],25.68 pg
same,MEAN CORPUSCULAR HEMOGLOBIN CONCENTRATION,[1],39.9 G/DL
same,MEAN CORPUSCULAR VOLUME,[1],64.37 fL
same,MONOCYTE,[1],1.5%
same,NEUTROPHIL,[1],6.5%
same,NUCLEATED RED BLOOD CELLS,[1],0 /100WBC
same,PLATELET COUNT,[1],1202.83 x10E3/uL
same,ALANINE AMINOTRANSFERASE,[1],55.5 u/L
same,ALBUMIN,[1],4.22 G/DL
same,ALKALINE PHOSPHATASE,[1],406.83 u/L
same,ASPARTATE AMINOTRANSFERASE,[1],101.5 u/L
same,BLOOD UREA NITROGEN,[1],13.5 mg/dL
same,CARBON DIOXIDE,[1],30.33 mmol/L
same,CHLORIDE,[1],102.17 MEQ/L
same,CHOLESTEROL,[1],63.67 mg/dL
same,CREATINE PHOSPHOKINASE,[1],732.67 u/L
same,CREATININE,[1],0.2 mg/dL
same,GLUCOSE,[1],157 mg/dL
same,LACTATE DEHYDROGENASE,[1],442.5 u/L
same,LIPASE,[1],10.83 u/L
same,PHOSPHORUS,[1],12.68 mg/dL
same,POTASSIUM,[1],5.67 MEQ/L
same,SODIUM,[1],144 MEQ/L
same,TOTAL BILIRUBIN,[1],0.15 mg/dL
same,TOTAL PROTEIN,[1],6.02 G/DL
same,URIC ACID,[1],1.55 mg/dL
same,ABSOLUTE BASOPHIL,[2],0 CELLS/uL
same,ABSOLUTE EOSINOPHIL,[2],17 CELLS/uL
same,ABSOLUTE LYMPHOCYTE,[2],11849.17 CELLS/uL
same,ABSOLUTE MONOCYTE,[2],69.83 CELLS/uL
same,ABSOLUTE SEGMENTED NEUTROPHIL,[2],730.67 CELLS/uL
same,BASOPHIL,[2],0%
same,EOSINOPHIL,[2],0.17%
same,ERYTHROCYTE COUNT,[2],5.93 x10E6/uL
same,HEMATOCRIT,[2],37.42%
same,HEMOGLOBIN,[2],14.4 G/DL
same,LEUKOCYTE COUNT,[2],12.67 x10E3/uL
same,LYMPHOCYTE,[2],93.17%
same,MEAN CORPUSCULAR HEMOGLOBIN,[2],24.32 pg
same,MEAN CORPUSCULAR HEMOGLOBIN CONCENTRATION,[2],38.5 G/DL
same,MEAN CORPUSCULAR VOLUME,[2],63.08 fL
same,MONOCYTE,[2],0.5%
same,NEUTROPHIL,[2],6.17%
same,NUCLEATED RED BLOOD CELLS,[2],0 /100WBC
same,PLATELET COUNT,[2],1170.5 x10E3/uL
same,ALANINE AMINOTRANSFERASE,[2],51 u/L
same,ALBUMIN,[2],4.12 G/DL
same,ALKALINE PHOSPHATASE,[2],392.67 u/L
same,ASPARTATE AMINOTRANSFERASE,[2],81.67 u/L
same,BLOOD UREA NITROGEN,[2],16.17 mg/dL
same,CARBON DIOXIDE,[2],30.67 mmol/L
same,CHLORIDE,[2],100.5 MEQ/L
same,CHOLESTEROL,[2],64.83 mg/dL
same,CREATINE PHOSPHOKINASE,[2],242.67 u/L
same,CREATININE,[2],0.2 mg/dL
same,GLUCOSE,[2],186.83 mg/dL
same,LACTATE DEHYDROGENASE,[2],188 u/L
same,LIPASE,[2],10.83 u/L
same,PHOSPHORUS,[2],11.67 mg/dL
same,POTASSIUM,[2],5.51 MEQ/L
same,SODIUM,[2],142.55 MEQ/L
same,TOTAL BILIRUBIN,[2],0.22 mg/dL
same,TOTAL PROTEIN,[2],6.08 G/DL
same,URIC ACID,[2],1.85 mg/dL
same,ABSOLUTE BASOPHIL,[3],0 CELLS/uL
same,ABSOLUTE EOSINOPHIL,[3],42 CELLS/uL
same,ABSOLUTE LYMPHOCYTE,[3],6254.33 CELLS/uL
same,ABSOLUTE MONOCYTE,[3],40 CELLS/uL
same,ABSOLUTE SEGMENTED NEUTROPHIL,[3],297 CELLS/uL
same,BASOPHIL,[3],0%
same,EOSINOPHIL,[3],0.67%
same,ERYTHROCYTE COUNT,[3],4.48 x10E6/uL
same,HEMATOCRIT,[3],28.87%
same,HEMOGLOBIN,[3],11.63 G/DL
same,LEUKOCYTE COUNT,[3],6.63 x10E3/uL
same,LYMPHOCYTE,[3],94.33%
same,MEAN CORPUSCULAR HEMOGLOBIN,[3],26 pg
same,MEAN CORPUSCULAR HEMOGLOBIN CONCENTRATION,[3],40.33 G/DL
same,MEAN CORPUSCULAR VOLUME,[3],64.43 fL
same,MONOCYTE,[3],0.67%
same,NEUTROPHIL,[3],4.33%
same,NUCLEATED RED BLOOD CELLS,[3],0 /100WBC
same,PLATELET COUNT,[3],825.33 x10E3/uL
same,ALANINE AMINOTRANSFERASE,[3],47.67 u/L
same,ALBUMIN,[3],4.1 G/DL
same,ALKALINE PHOSPHATASE,[3],395.67 u/L
same,ASPARTATE AMINOTRANSFERASE,[3],99 u/L
same,BLOOD UREA NITROGEN,[3],14 mg/dL
same,CARBON DIOXIDE,[3],32.33 mmol/L
same,CHLORIDE,[3],103.33 MEQ/L
same,CHOLESTEROL,[3],67.33 mg/dL
same,CREATINE PHOSPHOKINASE,[3],526.33 u/L
same,CREATININE,[3],0.17 mg/dL
same,GLUCOSE,[3],135 mg/dL
same,LACTATE DEHYDROGENASE,[3],170.67 u/L
same,LIPASE,[3],10.33 u/L
same,PHOSPHORUS,[3],11.9 mg/dL
same,POTASSIUM,[3],6.35 MEQ/L
same,SODIUM,[3],144.8 MEQ/L
same,TOTAL BILIRUBIN,[3],0.17 mg/dL
same,TOTAL PROTEIN,[3],5.6 G/DL
same,URIC ACID,[3],1.13 mg/dL
